# Laboratory results: PubChem BioAssay AID434967 (Sanford-Burnham Center for Chemical Genomics, 2010)
# Assay: blockers of HIV fusion peptide binding, cell-free – biochemical, fluorescence quenching, SAR follow-up (AID 434967)
# Conditions: 30 min
row,SMILES,IC50 [µM]
1,COc1ccc(C(=O)Oc2ccc(C=NNc3ccc(Cl)c(C(=O)O)c3)cc2OC)cc1,5.16
2,O=C(N/N=C/c1c(O)n(C2CCCCC2)c(=S)[nH]c1=O)c1ccccc1O,9
3,CCOC(=O)c1sc(N2C(=O)C(O)=C(C(=O)c3ccc(C)o3)C2c2cccc([N+](=O)[O-])c2)nc1C (stereo not given),10.5
4,COc1cc(C=NNc2ccc(Cl)c(C(=O)O)c2)ccc1OC(=O)c1ccccc1F,25.9
5,Cc1c2c(=O)n(-c3nc4ccccc4s3)nc-2cc(O)n1Cc1ccccc1,10.1
6,O=C(O)c1cc(NN=Cc2ccc(-c3ccccc3)cc2)ccc1Cl,14.8
7,O=C(O)c1ccccc1N=Nc1c(O)[nH]c2ccc([N+](=O)[O-])cc12,13.3
8,N#C/C(=C\c1ccc(O)c([N+](=O)[O-])c1)c1nc2ccccc2s1,6.25
9,CC(C)(C)c1cc(-c2csc(Nc3ccccc3)[n+]2Cc2ccc(C(=O)O)cc2)cc(C(C)(C)C)c1O,27.3
10,COc1cc(C=NNc2ccc(Cl)c(C(=O)O)c2)ccc1OC(=O)c1ccc(F)cc1,8.03
